In PMC5332414, “Mycobacterium abscessus subsp. abscessus Is Capable of Degrading Pseudomonas aeruginosa Quinolone Signals” (Frontiers in Microbiology, 2017):

Tests used:
[1] = target: T1, AqdB (His8-MBP-AqdB) (Mycobacteroides abscessus, UniProt B1MFK1); assay: biotransformation by recombinant E. coli cells, HPLC; format: cell-based; conditions: 20 μM HHQ, LB medium; E. coli Rosetta without aqdB did not convert HHQ
T1 construct: His8-MBP fusion, pET28b(+), expressed in E. coli Rosetta(DE3) whole cells

[2] = system: CCCCCCCc1[nH]c2ccccc2c(=O)c1O; assay: purified protein; format: biochemical, Mycobacteroides abscessus; conditions: apparent, co-substrate O2, 50 mM Tris, 2 mM EDTA, 10% PEG 1500, 4% (v/v) DMSO, pH 8.0, 30°C

T1 sequence (B1MFK1 whole entry, the tested form may be a part): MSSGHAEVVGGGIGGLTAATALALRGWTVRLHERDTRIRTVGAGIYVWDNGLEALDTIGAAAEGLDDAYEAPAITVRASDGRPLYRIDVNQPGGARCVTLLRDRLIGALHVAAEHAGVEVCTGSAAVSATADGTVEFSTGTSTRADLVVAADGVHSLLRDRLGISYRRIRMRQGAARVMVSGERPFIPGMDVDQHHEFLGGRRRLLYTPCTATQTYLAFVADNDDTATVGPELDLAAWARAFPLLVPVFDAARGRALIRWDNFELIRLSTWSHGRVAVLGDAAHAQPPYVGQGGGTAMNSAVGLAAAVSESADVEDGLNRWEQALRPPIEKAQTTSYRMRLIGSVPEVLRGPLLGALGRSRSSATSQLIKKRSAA

Row | Molecule | biotransformation by recombinant E. coli cells, HPLC [1] | Km [2] [µM] | kcat [2] [s⁻¹]
1 | CCCCCCCc1cc(=O)c2ccccc2[nH]1 [HHQ, 2-heptyl-4(1H)-quinolone] | E. coli cells producing the His8-MBP-AqdB protein converted HHQ to PQS | – | –
2 | CCCCCCCc1[nH]c2ccccc2c(=O)c1O [PQS, 2-heptyl-3-hydroxy-4(1H)-quinolone] | E. coli cells producing the His8-MBP-AqdB protein converted HHQ to PQS | – | –
3 | AqdC (AqdC^I) (Mycobacteroides abscessus ATCC 19977) | – | 37.2 ± 9.8 | 97.8 ± 19.1
